{"source": "ChEMBL document CHEMBL1153508", "about": "“Evaluation of hydrogen bonds of ecdysteroids in the ligand-receptor interactions using a protein modeling system” (Bioorg Med Chem, 2009)"}
{"target": "T1, Ecdysone receptor (Drosophila melanogaster, UniProt P34021)", "T1 sequence (P34021 whole entry)": "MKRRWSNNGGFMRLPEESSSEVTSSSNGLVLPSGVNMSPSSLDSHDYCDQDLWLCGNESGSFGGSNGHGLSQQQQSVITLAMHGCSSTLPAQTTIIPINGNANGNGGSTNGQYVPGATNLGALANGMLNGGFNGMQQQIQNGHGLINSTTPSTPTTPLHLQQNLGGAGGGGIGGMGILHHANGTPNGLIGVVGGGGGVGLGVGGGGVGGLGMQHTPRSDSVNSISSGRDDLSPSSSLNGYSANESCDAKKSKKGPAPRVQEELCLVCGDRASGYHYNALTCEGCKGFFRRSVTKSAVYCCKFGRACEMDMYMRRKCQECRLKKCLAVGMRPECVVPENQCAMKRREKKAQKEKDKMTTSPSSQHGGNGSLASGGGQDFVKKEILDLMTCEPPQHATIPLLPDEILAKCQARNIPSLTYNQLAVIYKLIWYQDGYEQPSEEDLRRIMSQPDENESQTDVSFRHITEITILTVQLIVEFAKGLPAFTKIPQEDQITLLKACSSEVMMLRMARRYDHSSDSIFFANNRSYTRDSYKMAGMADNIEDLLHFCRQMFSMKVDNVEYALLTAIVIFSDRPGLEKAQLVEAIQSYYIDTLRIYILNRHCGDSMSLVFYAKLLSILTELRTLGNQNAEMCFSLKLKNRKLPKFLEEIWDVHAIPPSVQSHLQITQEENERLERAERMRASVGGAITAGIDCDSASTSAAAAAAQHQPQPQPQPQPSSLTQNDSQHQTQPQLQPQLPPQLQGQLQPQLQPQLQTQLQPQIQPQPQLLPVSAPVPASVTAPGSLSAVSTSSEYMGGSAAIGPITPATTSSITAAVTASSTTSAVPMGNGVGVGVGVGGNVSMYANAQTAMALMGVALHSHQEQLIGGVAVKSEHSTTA", "assay": "Binding affinity to ecdysone receptor ligand binding domain in Drosophila melanogaster assessed as number of hydrogen bonds formed", "units": {"IC50": "µM"}}
{"smiles": "CC(C)CC[C@@H](O)[C@](C)(O)[C@H]1CC[C@H]2[C@@H]3CC[C@H]4CCCC[C@]4(C)[C@H]3CC[C@]12C", "IC50": "> 245"}
{"smiles": "CC(C)CC[C@@H](O)[C@](C)(O)[C@H]1CC[C@H]2[C@@H]3CC[C@H]4C[C@@H](O)CC[C@]4(C)[C@H]3CC[C@]12C", "IC50": 41.7}
{"smiles": "CC(C)CC[C@@H](O)[C@](C)(O)[C@H]1CC[C@H]2[C@@H]3CC(=O)[C@@H]4C[C@H](O)CC[C@]4(C)[C@H]3CC[C@]12C", "IC50": 89.1}
{"smiles": "CC(C)CC[C@@H](O)[C@](C)(O)[C@H]1CC[C@H]2[C@@H]3C[C@@H](O)[C@H]4C[C@@H](O)CC[C@]4(C)[C@H]3CC[C@]12C", "IC50": "> 245"}
{"smiles": "CC(C)CC[C@@H](O)[C@](C)(O)[C@H]1CC[C@H]2[C@@H]3CC(=O)[C@@H]4C[C@@H](O)[C@@H](O)C[C@]4(C)[C@H]3CC[C@]12C", "IC50": 0.0589}
{"smiles": "CC(C)CC[C@@H](O)[C@](C)(O)[C@H]1CC[C@H]2[C@@H]3CC=C4CCCC[C@]4(C)[C@H]3CC[C@]12C", "IC50": "> 245"}
{"smiles": "CC(C)CC[C@@H](O)[C@](C)(O)[C@H]1CC[C@H]2[C@@H]3CC(=O)[C@H]4C[C@H](O)CC[C@]4(C)[C@H]3CC[C@]12C", "IC50": 0.794}
{"smiles": "CC(C)CC[C@@H](O)[C@](C)(O)[C@H]1CC[C@H]2[C@@H]3C[C@H](O)[C@H]4C[C@@H](O)CC[C@]4(C)[C@H]3CC[C@]12C", "IC50": "> 245"}
{"smiles": "CC(C)CC[C@@H](O)[C@](C)(O)[C@H]1CC[C@H]2[C@@H]3CC=C4C[C@@H](O)CC[C@]4(C)[C@H]3CC[C@]12C", "IC50": 41.7}
{"smiles": "CC(C)CC[C@@H](O)[C@](C)(O)[C@H]1CC[C@H]2[C@@H]3CC(=O)[C@H]4C[C@@H](O)CC[C@]4(C)[C@H]3CC[C@]12C", "IC50": 9.55}
{"smiles": "CC(C)CC[C@@H](O)[C@](C)(O)[C@H]1CC[C@H]2[C@@H]3CC(=O)[C@H]4C[C@@H](O)[C@@H](O)C[C@]4(C)[C@H]3CC[C@]12C", "IC50": 14.5}
{"smiles": "CC(C)CC[C@H](O)[C@](C)(O)[C@H]1CC[C@H]2[C@@H]3CC(=O)[C@H]4C[C@H](O)[C@H](O)C[C@]4(C)[C@H]3CC[C@]12C", "IC50": 38.9}
{"smiles": "CC(C)CC[C@@H](O)[C@](C)(O)[C@H]1CC[C@H]2[C@@H]3CC(=O)[C@H]4C[C@H](O)[C@H](O)C[C@]4(C)[C@H]3CC[C@]12C", "IC50": 0.324}
{"smiles": "CC(C)(O)CC[C@@H](O)[C@](C)(O)[C@H]1CC[C@@]2(O)C3=CC(=O)[C@@H]4C[C@@H](O)[C@@H](O)C[C@]4(C)[C@H]3CC[C@]12C", "note": "[20-HYDROXYECDYSONE]", "IC50": 0.0457}
{"smiles": "C[C@@H]1C(=O)O[C@H](C)[C@H]1C[C@@H](O)[C@](C)(O)[C@H]1CC[C@@]2(O)C3=CC(=O)[C@@H]4C[C@@H](O)[C@@H](O)C[C@]4(C)[C@H]3CC[C@]12C", "note": "[CYASTERONE]", "IC50": 0.0617}
{"smiles": "C[C@H]([C@H](O)CCC(C)(C)O)[C@H]1CC[C@@]2(O)C3=CC(=O)[C@@H]4C[C@@H](O)[C@@H](O)C[C@]4(C)[C@H]3CC[C@]12C", "note": "[ECDYSONE]", "IC50": 2.57}
{"smiles": "CC(CO)CC[C@@H](O)[C@](C)(O)[C@H]1CC[C@@]2(O)C3=CC(=O)[C@@H]4C[C@@H](O)[C@@H](O)C[C@]4(C)[C@H]3CC[C@]12C", "note": "(some centres undefined) [INOKOSTERONE]", "IC50": 0.0912}
{"smiles": "C[C@H](C[C@@H](O)[C@](C)(O)[C@H]1CC[C@@]2(O)C3=CC(=O)[C@@H]4C[C@@H](O)[C@@H](O)C[C@]4(C)[C@H]3CC[C@]12C)C(C)(C)O", "note": "[MAKISTERONE A]", "IC50": 0.112}
{"smiles": "CC(C)CC[C@@H](O)[C@](C)(O)[C@H]1CC[C@@]2(O)C3=CC(=O)[C@@H]4C[C@@H](O)[C@@H](O)C[C@]4(C)[C@H]3CC[C@]12C", "note": "[PONASTERONE A]", "IC50": 0.00129}
